As usually defined, the inhibition is the drop in the measured response relative to a control, in per cent. Lower therefore signals a response near the control. A word on the IC50: it is the concentration needed to halve the response being measured. The low end stands for greater potency, the high end for weaker potency.

The target of one assay is T1, TPH1 (Homo sapiens, UniProt P17752).
T1 construct: purchased BPS Bioscience
T1 sequence (P17752 1-444): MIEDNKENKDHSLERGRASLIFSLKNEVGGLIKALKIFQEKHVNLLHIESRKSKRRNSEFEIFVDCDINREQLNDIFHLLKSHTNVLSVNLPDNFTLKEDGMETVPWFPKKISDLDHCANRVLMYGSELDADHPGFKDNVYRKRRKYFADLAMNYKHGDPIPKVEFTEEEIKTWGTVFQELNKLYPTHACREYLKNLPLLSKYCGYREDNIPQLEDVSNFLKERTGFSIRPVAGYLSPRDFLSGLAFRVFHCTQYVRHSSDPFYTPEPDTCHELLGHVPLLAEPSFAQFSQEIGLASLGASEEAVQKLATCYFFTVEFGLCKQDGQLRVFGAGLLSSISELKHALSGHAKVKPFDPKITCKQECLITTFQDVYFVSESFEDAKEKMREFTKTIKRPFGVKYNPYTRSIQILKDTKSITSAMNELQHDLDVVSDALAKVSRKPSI
The assay can be described thus: TPH1 enzyme inhibition, in vitro screening (BPS Bioscience kit, fluorescence). In kind it is biochemical. The following applies: for inhibition at 1 µM / TPH1 Inhibition (% Inhibition at 1 µM): 1 µM compound; for inhibition at 10 µM: 10 µM compound (stated in the cell). As to the method: Consequently, the core structure of thienopyrimidine tyrosine (derivative 6) was selected as the starting point for the synthesis, evaluating the structure-activity relationships (SAR), and optimization of TPH1 inhibitors. […]
In vitro screening was performed as described previously [PMID: 33417443]. Briefly, TPH1 enzyme activity was measured with a commercially available kit (BPS Bioscience). Compounds were dissolved in DMSO (Sigma). Then, 10 μL of the compound was dispensed into a 96-well microplate, and 40 μL of the TPH1 enzyme solution (320 ng enzyme/reaction) was added. Then, 50 μL of the TPH1 reaction solution was added, and the microplate was sealed with aluminum foil. The microplate was immediately cooled to 4 °C, gently shaken, and incubated for 4 h. After a defined time, 10 μL of the TPH1 quench solution was added. Then, the fluorescence was measured with a Flexstation3 microplate reader at 300 nm for excitation and 360 nm for emission. All experiments were performed in triplicate.

Another assay relates to HFD-fed C57BL/6J mice. The assay can be described thus: In vivo efficacy test in high-fat diet fed mice. Further details: species or system mouse. Conditions: vs vehicle. As to the method:
All animal study protocols were approved by the Institutional Animal Care and Use Committee at the Korea Advanced Institute of Science and Technology. Male C57BL/6J mice were purchased from SLC (Shizuoka, Japan) and acclimatized for a week. Mice were housed in a humidity and temperature-controlled environment under a 12 h light-dark cycle with ad libitum access to water and food. After acclimatization, male mice were fed a high-fat diet (HFD, 60% fat calories, Research diet; New Brunswick, NJ) and received daily treatment with TPH1 inhibitors. […] Compound 18i was dissolved in 5% dimethyl sulfoxide (DMSO) (Sigma, St. Louis, MO, USA) and 25% β-cyclodextrin (Sigma, St. Louis, MO, USA). Vehicle or compound 18i (100 mg kg^−1) was injected intraperitoneally in mice for 10 days after two weeks of HFD feeding. Both compounds 19 and 21 were prepared in 10% DMSO and 10% Kolliphor EL (Sigma, St. Louis, MO, USA). Vehicle and 100 mg kg^−1 of compound 19 or compound 21 were administered daily by intraperitoneal injection or oral feeding, respectively, concomitant to the initiation of HFD feeding. For analyzing blood glucose concentration, glucose in blood collected from the tail vein was measured after fasting mice for 16 h using a Gluco Dr. Top glucometer (Allemedicus, Anyang, Korea). Body weight was measured daily and mice were sacrificed for harvesting adipose tissue and liver.
Tissue samples were fixed in 10% formalin, embedded in paraffin, and cut into 5 μm thick sections, followed by deparaffinization and rehydration for H&E staining and UCP1 immunohistochemistry. After heat-induced antigen retrieval with a citrate buffer (pH 6.0) for 10 min at 95°C, tissue sections were incubated with BLOXALL Blocking solution (Vector Laboratories, Burlingame, CA, USA) to block endogenous peroxidase, followed by incubation with 2% normal goat serum in phosphate-buffered saline (PBS) for 30 min at room temperature to block nonspecific binding. Sections were incubated overnight with the anti-UCP1 primary antibody diluted 1:200 in 2% normal goat serum in PBS (Abcam, Cambridge, UK) at 4 °C, followed by 30 min incubation with biotinylated anti-rabbit IgG secondary antibody diluted 1:400 in PBS for 30 min at room temperature. After incubation with Vectastain […] reagent (Vector Laboratories) for 30 min, peroxidase activity was visualized with 3,3′-diaminobenzidine substrates (Vector Laboratories). For measuring average adipocyte size, we analyzed three random fields of H&E stained micrographs per adipose tissue sample from two representative mice of each group using AdipoCount software.
Fresh liver tissues were flash frozen in O.C.T. compound (Sakura Finetek, Torrance, CA, USA) and 10 μm cryostat sections were collected on glass slides. Sections were allowed to air-dry for 1 h, rinsed with PBS for 5 min, and washed with distilled water for 5 min. After washing, sections were placed in 30% isopropanol for 5 min, 60% isopropanol for 5 min twice, and then stained in Oil Red O solution (0.5% Oil red O (Sigma, St. Louis, MO, USA) dissolved in 60% isopropanol) for 15 min. The stained sections were rinsed twice with distilled water, mounted, coverslipped, and documented using bright field microscopy.

Assay [1] concerns high-fat diet (HFD) fed mice. Further details: method as in PMID 25864946, PMID 25485911. The following applies: cited from earlier work.

Some results are limits rather than exact numbers.

`N[C@@H](Cc1ccc(Oc2ncnc3c(Br)csc23)cc1)C(=O)O` [Compound 6] showed an inhibition at 100 µM against TPH1 (100 µM compound) of over 60%. In the case of `N[C@@H](Cc1ccc(Oc2ncnc3c(-c4ccc(O)cc4)csc23)cc1)C(=O)O` [Compound 9a], 100 µM produced 45% inhibition against TPH1 (100 µM compound). At TPH1 (100 µM compound), `N[C@@H](Cc1ccc(Oc2ncnc3c(-c4cccc(O)c4)csc23)cc1)C(=O)O` [Compound 9b] came in with an inhibition at 100 µM of 82%.

Molecule `N[C@@H](Cc1ccc(Oc2ncnc3c(-c4ccc(OCc5ccccc5)cc4)csc23)cc1)C(=O)O` [Compound 11a] returned an inhibition at 100 µM at TPH1 (100 µM compound) of 58%. In turn, `N[C@@H](Cc1ccc(Oc2ncnc3c(-c4cccc(OCc5ccccc5)c4)csc23)cc1)C(=O)O` [Compound 11b] displayed an inhibition at 100 µM at TPH1 (100 µM compound) of 94%. At TPH1 (100 µM compound, 100 µM), the “TPH1 Inhibition (% Inhibition at 100 µM)” value is on record as 92%.

For the molecule `Nc1ncnc2c(-c3ccc(C[C@H](N)C(=O)O)cc3)csc12` [Compound 15a], at TPH1, the “TPH1 inhibitory activity (in words)” value was “weak activity”. This molecule also displayed an inhibition at 100 µM at TPH1 (100 µM compound) of 49%. For `N[C@@H](Cc1ccc(-c2csc3c(O)ncnc23)cc1)C(=O)O` [Compound 15b], in that order: “weak activity” and 33%. Regarding `N[C@@H](Cc1ccc(-c2csc3c(NCc4ccc(-c5ccccc5)cc4)ncnc23)cc1)C(=O)O` [Compound 18a], on TPH1, 1 µM produced 25% inhibition. In addition, testing at 100 µM at TPH1 (100 µM compound) gave an inhibition of 90%. In turn, `C[C@@H](Nc1ncnc2c(-c3ccc(C[C@H](N)C(=O)O)cc3)csc12)c1ccc2ccccc2c1` [Compound 18b] yielded an inhibition at 1 µM at TPH1 of 10%.

`Cl.N[C@@H](Cc1ccc(-c2csc3c(OC(c4ccccc4)C(F)(F)F)ncnc23)cc1)C(=O)O` (stereo partly shown) [Compound 18c]: on TPH1, the “TPH1 inhibitory activity (in words)” value was “completely lost their activity” and testing at 10 µM gave an inhibition of 2.5%. `N[C@@H](Cc1ccc(-c2csc3c(OC(c4ccc(-c5ccccc5)cc4)C(F)(F)F)ncnc23)cc1)C(=O)O` (stereo partly shown) [Compound 18d]: at TPH1, the “TPH1 inhibitory activity (in words)” value was “completely lost their activity” and the inhibition at 10 µM came out at 1.2%. As to `N[C@@H](Cc1ccc(-c2csc3c(OC(c4ccccc4-c4ccccc4)C(F)(F)F)ncnc23)cc1)C(=O)O` (stereo partly shown) [Compound 18e], the inhibition at 1 µM on TPH1 is 76%.

In turn, `N[C@@H](Cc1ccc(-c2csc3c(OC(c4ccc(Cl)cc4-c4ccccc4)C(F)(F)F)ncnc23)cc1)C(=O)O` (stereo partly shown) [Compound 18f] yielded an inhibition at 1 µM against TPH1 of 41%. Still for that read-out and setting: the result for `N[C@@H](Cc1ccc(-c2csc3c(O[C@H](c4ccc(Cl)cc4-c4ccoc4)C(F)(F)F)ncnc23)cc1)C(=O)O` [Compound 18g] reads 12%. In the case of `N[C@@H](Cc1ccc(-c2csc3c(O[C@H](c4ccc(Cl)cc4C4=CCCOC4)C(F)(F)F)ncnc23)cc1)C(=O)O` [Compound 18h], on TPH1, the midpoint of inhibition, the IC50, lay at 263 nM and the inhibition at 1 µM came out at 78%. Consider `CCOC(=O)[C@@H](N)Cc1ccc(-c2csc3c(O[C@H](c4ccc(Cl)cc4-n4ccc(C)n4)C(F)(F)F)ncnc23)cc1.Cl` [Compound 19, ethyl (S)-2-amino-3-(4-(4-((R)-1-(4-chloro-2-(3-methyl-1H-pyrazol-1-yl)phenyl)-2,2,2-trifluoroethoxy)thieno[3,2-d]pyrimidin-7-yl)phenyl)propanoate hydrochloride], for which the Body weight gain entry with HFD-fed C57BL/6J mice (100 mg/kg ip daily for 11 days from start of HFD) is recorded as “attenuated body weight gain”. Also, in the assay with HFD-fed C57BL/6J mice (100 mg/kg ip daily), the “Adipocyte size in eWAT and iWAT (histology)” value is “decreased adipocyte size”; the “UCP1 content in iWAT (immunohistochemistry)” value is “higher content of mitochondrial uncoupling protein 1 (UCP1)”. For the same molecule, at TPH1, the IC50 was 994 nM and the “TPH1 Inhibition (% Inhibition at 1 µM)” value came to 60%. On to `CCOC(=O)[C@@H](N)Cc1ccc(-c2csc3c(O[C@H](c4ccc(Cl)cc4-n4ccc(C)n4)C(F)(F)F)ncnc23)cc1` [Compound 20, ethyl (S)-2-amino-3-(4-(4-((R)-1-(4-chloro-2-(3-methyl-1H-pyrazol-1-yl)phenyl)-2,2,2-trifluoroethoxy)thieno[3,2-d]pyrimidin-7-yl)phenyl)propanoate], for which, at TPH1 (1 µM), the “TPH1 Inhibition (% Inhibition at 1 µM)” value is recorded as 79%.

On to `CCOC(=O)[C@@H](N)Cc1ccc(-c2csc3c(O[C@H](c4ccc(Cl)cc4-n4ccc(C)n4)C(F)(F)F)ncnc23)cc1` [Compound 21, ethyl (S)-2-amino-3-(4-(4-((R)-1-(4-chloro-2-(3-methyl-1H-pyrazol-1-yl)phenyl)-2,2,2-trifluoroethoxy)thieno[3,2-d]pyrimidin-7-yl)phenyl)propanoate hippurate], for which, in the assay on HFD-fed C57BL/6J mice (100 mg/kg oral daily, 6 weeks), the “Body and liver weights” value was “without significant changes in body and liver weights”; the “Lipid accumulation in liver tissue (H&E, oil red O)” value is listed as “dramatically decreased lipid accumulation in liver tissue”. Besides, the “TPH1 Inhibition (% Inhibition at 1 µM)” value on TPH1 (1 µM) was 92%.

Consider `Cc1ccn(-c2cc(Cl)ccc2[C@@H](Oc2nc(N)nc3c(-c4ccc(C[C@H](N)C(=O)O)cc4)csc23)C(F)(F)F)n1` [Compound 30], for which, at TPH1, the IC50 worked out at 208 nM and 1 µM produced 91% inhibition. On to `Nc1nc(OC(c2ccc(-c3cccc(F)c3)cc2)C(F)(F)F)cc(-c2ccc(C[C@H](N)C(=O)O)cc2)n1` (stereo partly drawn) [LP533401, 4-[2-amino-6-[2,2,2-trifluoro-1-(3’-fluoro[1,1’-biphenyl]-4-yl)ethoxy]-4-pyrimidinyl]-L-phenylalanine, reference compound], for which, in assay [1], the “Protection against diet-induced obesity (body weight gain, lipogenesis in adipose tissue)” value is reported as “protect against diet-induced obesity in vivo”.
